US20080214568A1, “Pharmaceutical Combination Comprising an Antifungal Agent and an Active Substance Selected From Carveol, Eugenol, Thymol, Borneol, Carvacrol, and Alpha- and Beta-Ionones” (ADVANCED SCIENTIFIC DEVELOPMENTS, priority 2005, published 2008)
Where two headings read alike, the source gives them in different places.

What was measured:
Candida albicans = test: Static tests: minimal inhibitory (MIC) and minimal fungicidal concentration (MFC) on Candida albicans strains; assay type: cell-based
Procedure: In Vitro Tests: Determination of Minimal Fungicidal Concentration (MFC) on Different Strains of Candida albicans
The experiment was carried out with several strains of Candida albicans having different susceptibilities isolated in the hospital environment from the mouth, vagina and digestive tract. […] An antifungal pharmaceutical composition was prepared by mixing fluconazole at different concentrations with carvacrol at a sub-inhibitory concentration of 0.3 g per liter of solution or excipient. This pharmaceutical composition according to the invention was named FLUC-P for potentiated fluconazole. In each case, antifungal activity was determined either with fluconazole alone, or with carvacrol alone, or with the composition of the invention.
Table 1 gives the results of static tests to determine the minimal fungicidal concentration (MFC) in μg/ml.
(§1) The experiment was carried out with several strains of Candida albicans having different susceptibilities isolated in the hospital environment. The antifungal agent used was voriconazole, an azole derivative and one of the most recent antifungals on the market. An antifungal pharmaceutical composition according to the invention was prepared by mixing voriconazole at different concentrations with carvacrol at a sub-inhibitory concentration of 0.3 g per liter of solution or excipient. This pharmaceutical composition according to the invention was named Vorico-P for potentiated voriconazole. In each case, antifungal activity was determined either with voriconazole alone, or with carvacrol alone, or with the composition of the invention.
Table 2 gives the results of static tests to determine the minimal inhibitory concentration (MIC) and the minimal fungicidal concentration (MFC) in μg/ml.
as §1, with “caspofungin, from the echinocandin family, which is” for “voriconazole, an azole derivative and”, “newest” for “most recent”, “caspofungin” for “voriconazole”, “Caspo-P” for “Vorico-P”, “caspofungin.” for “voriconazole.”
Table 3 gives the results of static tests to determine the minimal inhibitory concentration (MIC) and the minimal fungicidal concentration (MFC) in μg/ml.
The experiment was carried out with several strains of Candida albicans having different susceptibilities isolated in the hospital environment. The antifungal agent used was 5-fluorocytosine, from the pyrimidine group, which is one of the oldest antifungal agents. An antifungal pharmaceutical composition according to the invention was prepared by mixing 5-fluorocytosine at different concentrations with eugenol at a sub-inhibitory concentration of 0.5 g per liter of solution or excipient. This pharmaceutical composition according to the invention was named Fluoro-P for potentiated 5-fluorocytosine. In each case, antifungal activity was determined either with 5-fluorocytosine alone, or with eugenol alone, or with the composition of the invention.
Table 4 gives the results of static tests to determine the minimal inhibitory concentration (MIC) and the minimal fungicidal concentration (MFC) in μg/ml.

[1] = tested on: Candida albicans strain with moderate resistance to fluconazole; assay type: in vivo, mice; conditions: fluconazole alone 4 mg/kg/day, carvacrol alone 30 mg/kg/day; for survival: mice, gavage from 24 h post-infection, seven days, composition fluconazole 2 mg/kg + carvacrol 30 mg/kg, FIG. 2; for Candida albicans loads in kidney, lung and bone marrow: organs of mice which died during the experiment
Description: FIG. 2 presents the results of in vivo tests in a systemic candidiasis model in experimentally infected mice either untreated, or treated with fluconazole alone, treated with carvacrol alone, or treated with a pharmaceutical composition according to the invention comprising fluconazole and carvacrol.
Groups of 15 mice were experimentally infected by intravenous injection of 10,000,000 cells (colony-forming units) of a Candida albicans strain with moderate resistance to fluconazole.
The first group was composed of control mice which were infected and untreated.
The second group was composed of infected mice treated by gavage, 24 h post-infection, with fluconazole alone at a dose of 4 mg/kg of body weight/day.
The third group was composed of infected mice treated by gavage, 24 h post-infection, with carvacrol alone at a dose of 30 mg/kg of body weight/day.
The fourth group was composed of infected mice treated by gavage, 24 h post-infection, with fluconazole 2 mg/kg of body weight and with carvacrol 30 mg/kg of body weight.
The duration of treatment was seven days for surviving animals. The survival rate was measured over time. […] All the other mice died between the second and seventh day post-infection.

Aspergillus niger = test: Static tests: MIC and MFC on Aspergillus niger strains; assay type: cell-based
Procedure: The experiment was carried out with several strains of Aspergillus niger which were not susceptible to fluconazole. The antifungal agent used was fluconazole, an azole derivative and one of the most widely used antifungals. […] Aspergillosis, caused by microorganisms from the family Aspergillus sp, represents the most common and most difficult-to-treat infection. An antifungal pharmaceutical composition according to the invention was prepared by mixing fluconazole at different concentrations with carvacrol at a sub-inhibitory concentration of 0.25 g per liter of solution or excipient. This pharmaceutical composition according to the invention was named Fluc-P for potentiated fluconazole. In each case, antifungal activity was determined either with fluconazole alone, or with carvacrol alone, or with the composition of the invention.
Table 5 gives the results of static tests to determine the minimal inhibitory concentration (MIC) and the minimal fungicidal concentration (MFC) in μg/ml.

Which MIC (Candida albicans; Candida albicans, Example 4, resistant strain, 5-fluorocytosine alone) does the source give for `Nc1nc(=O)[nH]cc1F` [5-fluorocytosine] here?
Its MIC is 25 µg/mL.

And the MIC (Candida albicans; Candida albicans, Example 4, susceptible strain, 5-fluorocytosine alone)?
The MIC was 2.5 µg/mL.

And the “5-fluorocytosine concentration producing fungicidal activity versus fungistatic concentration of 5-fluorocytosine alone” value (Candida albicans; resistant strains, with eugenol 0.5 mg/ml)?
The value was “five times lower”.

Which MFC (Candida albicans; Candida albicans) does the source give for `Cc1ccc(C(C)C)cc1O` [Carvacrol, carvacrol] here?
The MFC was 1000 µg/mL.

And the MFC (Candida albicans; Example 1, highly resistant strain, exponential growth phase, substance alone)?
Its MFC is 1000 µg/mL.

What about the MFC (Candida albicans; Example 1, moderately resistant strain, exponential growth phase, substance alone) of the same molecule?
The MFC was 1000 µg/mL.

And the MFC (Candida albicans; Example 2, resistant strain, carvacrol alone)?
The MFC was 1000 µg/mL.

And the MFC (Candida albicans; Example 2, susceptible strain, carvacrol alone)?
Its MFC is 1000 µg/mL.

What about the MFC (Candida albicans; Example 3, resistant strain, carvacrol alone) of the same molecule?
The MFC was 1000 µg/mL.

And the MFC (Candida albicans; Example 3, susceptible strain, carvacrol alone)?
Its MFC is 1000 µg/mL.

And the survival [1]?
The survival was “died during the experiment”.

And the “Candida albicans loads in kidney, lung and bone marrow” value [1]?
The value was “high loads”.

What about the MFC (Aspergillus niger; Aspergillus niger) of the same molecule?
Its MFC is 500 µg/mL.

What does the source list for `CC[C@H](C)C[C@H](C)CCCCCCCCC(=O)N[C@H]1C[C@@H](O)[C@@H](NCCN)NC(=O)[C@@H]2[C@@H](O)CCN2C(=O)[C@H]([C@H](O)CCN)NC(=O)[C@H]([C@H](O)[C@@H](O)c2ccc(O)cc2)NC(=O)[C@@H]2C[C@@H](O)CN2C(=O)[C@H]([C@@H](C)O)NC1=O` [Caspofungin, caspofungin]?
MIC (Candida albicans; Candida albicans, Example 3, resistant strain, caspofungin alone): 3 µg/mL; MIC (Candida albicans; Candida albicans, Example 3, susceptible strain, caspofungin alone): < 0.05 µg/mL; caspofungin concentration producing fungicidal activity versus fungistatic concentration of caspofungin alone (Candida albicans; with carvacrol 0.3 mg/ml): at least six times lower

What does the source list for `C=CCc1ccc(O)c(OC)c1` [Eugenol, eugenol]?
MFC (Candida albicans; Candida albicans, Example 4, resistant strain, eugenol alone, read-out: MFC): 2000 µg/mL; MFC (Candida albicans; Candida albicans, Example 4, susceptible strain, eugenol alone, read-out: MFC): 2000 µg/mL

With `OC(Cn1cncn1)(Cn1cncn1)c1ccc(F)cc1F` [Fluconazole, fluconazole] as the molecule, how does the MFC (Candida albicans; Candida albicans, Example 1, highly resistant strain, exponential growth phase, substance alone, read-out: MFC) read?
Its MFC is greater than 300 µg/mL.

And the MFC (Candida albicans; Candida albicans, Example 1, moderately resistant strain, exponential growth phase, substance alone, read-out: MFC)?
The MFC was 150 µg/mL.

And the MFC (Candida albicans; Candida albicans, Example 1, susceptible strain, exponential growth phase, substance alone, read-out: MFC)?
The MFC was 0.5 µg/mL.

And the survival [1]?
The survival was “died during the experiment”.

What about the “Candida albicans loads in kidney, lung and bone marrow” value [1] of the same molecule?
Its value is “high loads”.

What about the MIC (Aspergillus niger; Example 5, 12 different strains of Aspergillus niger, fluconazole alone) of the same molecule?
Its MIC is greater than 1000 µg/mL.

Which MIC (Candida albicans; Candida albicans, Example 2, resistant strain, voriconazole alone) does the source give for `C[C@@H](c1ncncc1F)[C@](O)(Cn1cncn1)c1ccc(F)cc1F` [Voriconazole, voriconazole] here?
The MIC was 10 µg/mL.

And the MIC (Candida albicans; Candida albicans, Example 2, susceptible strain, voriconazole alone)?
The MIC was less than 0.05 µg/mL.

What about the “voriconazole concentration producing fungicidal activity versus fungistatic concentration of voriconazole alone” value (Candida albicans; resistant strains, with carvacrol 0.3 mg/ml) of the same molecule?
Its value is “at least ten times lower”.
